# Data: BindingDB's records for doi:10.1021/jm900095y (National Institute On Drug Abuse-Intramural Research Program, 2009)
# Assay: Agonist activity at human D3 receptor expressed in HEK293 cells assessed as stimulation of mitogenesis
row,EC50,Compound
1,84 nM,O=C(NCCC(O)CN1CCN(c2cccc(Cl)c2Cl)CC1)c1cc2cc(I)ccc2o1 (centres undefined)
2,22.8 nM,O=C(NCCC(O)CN1CCN(c2cccc(Cl)c2Cl)CC1)c1cc2ccccc2o1 (centres undefined)

# Assay: Antagonist activity at human D3 receptor expressed in HEK293 cells assessed as inhibition of quinpirole-stimulated mitogenesis
row,IC50,Compound
1,0.22 nM,COc1ccccc1N1CCN(CCCCNC(=O)c2cc3ccccc3s2)CC1 [Benzo[b]thiophene-2-carboxylic acid {4-[4-(2-methoxy-phenyl)-piperazin-1-yl]-butyl}-amide]
2,38 nM,O=C(NCCC(O)CN1CCN(c2cccc(Cl)c2Cl)CC1)c1cc2cc(I)ccc2[nH]1 (centres undefined)
3,14.5 nM,COc1ccccc1N1CCN(CC(O)CCNC(=O)c2cc3cc(I)ccc3o2)CC1 (centres undefined)
4,2.39 nM,COc1ccccc1N1CCN(CCCCNC(=O)c2cc3ccccc3o2)CC1 [Benzofuran-2-carboxylic acid {4-[4-(2-methoxy-phenyl)-piperazin-1-yl]-butyl}-amide]
5,1.51 nM,COc1ccc2[nH]c(C(=O)NCCC(O)CN3CCN(c4cccc(Cl)c4Cl)CC3)cc2c1 (centres undefined)
6,25.7 nM,O=C(NCC(O)CCN1CCN(c2cccc(Cl)c2Cl)CC1)c1cc2ccccc2[nH]1 (centres undefined)
7,12.1 nM,COc1ccccc1N1CCN(CC(O)CCNC(=O)c2cc3ccccc3[nH]2)CC1 (centres undefined)
8,6.51 nM,CCCOc1ccccc1N1CCN(CC(O)CCNC(=O)c2cc3ccccc3[nH]2)CC1 (centres undefined)
9,22.9 nM,COc1ccccc1N1CCN(CCCCNC(=O)c2cc3cc(I)ccc3o2)CC1 [5-Iodo-benzofuran-2-carboxylic acid {4-[4-(2-methoxy-phenyl)-piperazin-1-yl]-butyl}-amide]
10,1.58 nM,COc1ccc2[nH]c(C(=O)NCCC(O)CN3CCN(c4ccccc4OC)CC3)cc2c1 (centres undefined)
11,173 nM,COc1ccccc1N1CCN(CC(O)CCNC(=O)c2cc3cc(I)ccc3[nH]2)CC1 (centres undefined)
12,7 nM,O=C(NC/C=C/CN1CCN(c2cccc(Cl)c2Cl)CC1)c1cc2ccccc2[nH]1
13,1.76 nM,COc1ccccc1N1CCN(CC(O)CCNC(=O)c2cc3cc(F)ccc3[nH]2)CC1 (centres undefined)
14,1.09 nM,COc1ccccc1N1CCN(C/C=C/CNC(=O)c2cc3ccccc3s2)CC1
15,39.1 nM,COc1ccccc1N1CCN(CC(O)CCNC(=O)c2cc3ccccc3s2)CC1 (centres undefined)
16,14.9 nM,COc1ccccc1N1CCN(C/C=C/CNC(=O)c2cc3ccccc3o2)CC1
17,11.2 nM,COc1ccccc1N1CCN(CC(O)CCNC(=O)c2cc3ccccc3o2)CC1 (centres undefined)
